One series addresses T1, HCV NS5B genotype 1b (Hepatitis C virus genotype 1b, UniProt Q9WMX2).
T1 construct: The protein was expressed with a 21 amino acid C-terminal deletion to remove transmembrane domain; expressed in transfected cells; host or cells: Huh-7
Put plainly: 3D-SCREEN assay (NS5B 3D-Screen platform, luciferase reporter gene). It counts as cell-based. In outline: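 Huh-7 cells transiently co-transfected with NS5BΔ21/Gal4-DBD, 3D-Sensor peptide I4/VP16 and firefly luciferase reporter. Compounds added 2 h after seeding, 1% DMSO final, 24 h incubation. Luciferase luminescence read; % inhibition relative to no-compound signal.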

The next series relates to HCV replicon Luc Neo ET. Put plainly: Luc Neo ET Replicon assay. Format: cell-based, Hepatitis C virus. The following applies: Table 3, titled RdRp enzyme assay results, EC50_Replicon LucneoET, 72 hours with compound, luciferase. The procedure:
Human Hepatoma Huh-7 cell line was maintained in DMEM/HAMF-12 supplemented with 10% SVF, 4 mM glutamine, […] Na pyruvate, 1% penistreptomycine. HCV replicon containing Huh-7 cell lines Huh-9.13 and Luc Neo ET (Reblikon) were maintained in DMEM supplemented with 10% SVF, 2 mM glutamine, and 1×NEAA, 100 U/ml penicillin, and 100 μg/ml streptomycine. Replicon cells were maintained in medium supplemented with 1 mg/ml G418 for replicon Huh-9.13 and 0.5 mg/ml for Luc Neo et replicon unless indicated otherwise. Huh-7 and HCV replicon cell lines were maintained at 37° C. and 5% CO2 in a humidified atmosphere. Cells were dissociated at sub confluence with trypsin EDTA 1×.
Replicon Luc Neo ET is a bicistronic expression constructs (Lohmann et al, 1999, Science 285, 110-113). In brief, the structural genes of the HCV genome were replaced by heterologous sequences; the gene encoding the neomycin phosphotransferase (NPT) and the internal ribosome entry site (IRES) of the encephalomyocarditis virus (EMCV). The bicistronic construct is therefore composed of the following elements: HCV-IRES nucleotides 1-389, the NPT gene, the EMCV-IRES directing translation of downstream HCV sequences from NS2 or NS3 up to the authentic 3′ end of the genome. HCV Polyprotein harbours the cell culture adaptive mutations E1202G, T1280I, K1846T. G418-resistance is only possible with cells containing high amounts of replicon.
Cells were dissociated the day before addition of compounds and seeded in 96 well-plates at a final concentration of 77 777.77 cells.ml^−1.well^−2 in 90 μl final volume of culture medium per well and were maintained at 37° C. and 5% CO2 in a humidified atmosphere for 24 hours. 10 μl of compounds to be tested were added 24 hours after seeding. Final concentration of DMSO was 1%. Cells were incubated in the presence of compounds for 72 hours after which expression of firefly luciferase reporter gene was quantified. Briefly, culture medium was removed and cells were lysed by addition of 100 μl of lysis buffer containing 125 mM Tris Phosphate ph 7.8, 10 mM EDTA, 5 mM DTT, 50% glycerol and 5% Triton. Plates were vortexed 10 min at 1300 rpm. Cell lysat was transferred in OpaqueWhite Assay 96 well Flat Bottom plates. 100 μl of luciferin solution 1× were added to each well. Luciferin solution contained 40 mM Tris Phosphate ph 7.8, 0.2 mM EDTA, 67 mM DTT, 2.14 mM MgCl2, 5.4 mM MgSO4, 4.7×10^−4 M luciferin, 5.3×10^−4 M ATP and 2.7×10^−4 M Acetyl co enzyme A. Luminescence was immediately measured with Berthold Microlumat Plus LB 96V luminometer with an integration of 0.5 sec Inhibition was calculated using the formula:
% inhibition=1−[(RLUsample−RLUbackground)/(RLUsignal−RLUbackground)]

The mark [1] stands for this setting: EC50_3DS_NS5B, Table 1, 3D-SCREEN assay results, Huh-7 cells, 24 hours with compound, firefly luciferase reporter.
[2] abbreviates: EC50_3DS_NS5B, Table 2, titled Replicon assay results.

Several values for one entry are separate records, joined by “and”; a condition that tells them apart may be missing. Identical values can stand only once. Like-named read-outs stand apart in the source and are kept apart here.

The text below walks through data of patent US20120128630A1, “1-(6 MEMBERS AZO-HETEROCYCLIC)-PYRROLIN-2-ONE COMPOUNDS AS INHIBITORS OF HEPATITIS C NS5B POLYMERASE, THE PHARAMACEUTICAL COMPOSITION THEREOF AND THEIR THERAPEUTIC USE” (priority 2009, published 2012).

As to `Cc1ccc(C(=O)C2=C(O)C(=O)N(c3ccc(C)nn3)C2c2ccc(C(C)C)cc2)cc1` (stereo not drawn) [Example 8, 3-hydroxy-5-(4-isopropyl-phenyl)-4-(4-methyl-benzoyl)-1-(6-methyl-pyridazin-3-yl)-1,5-dihydro-pyrrol-2-one], the melting point – broadly, the temperature of the solid-liquid transition – stood at 279 °C. The EC50 at HCV NS5B genotype 1b (setting [1]) is 2000 nM. Besides, in the series with HCV replicon Luc Neo ET (Hepatitis C virus, 72 h), the EC50 came out at 3000 nM.
The molecule `Cc1ccc(N2C(=O)C(O)=C(C(=O)c3ccc(C(C)C)cc3)C2c2ccc(C(C)C)cc2)nn1` (stereo not drawn) [Example 20, 3-hydroxy-4-(4-isopropyl-benzoyl)-5-(4-isopropyl-phenyl)-1-(6-methyl-pyridazin-3-yl)-1,5-dihydro-pyrrol-2-one] gave a melting point of 271 °C. Moreover, the EC50 at HCV NS5B genotype 1b (setting [1]) was determined as 400 nM. For the same molecule, in the series on HCV replicon Luc Neo ET (Hepatitis C virus, 72 h), the EC50 is 100 nM.
The matching figures for `Cc1ccc(C(=O)C2=C(O)C(=O)N(c3ccc(C)nn3)C2c2ccc(OC(F)(F)F)cc2)cc1` (stereo not drawn) [Example 22, 3-hydroxy-4-(4-methyl-benzoyl)-1-(6-methyl-pyridazin-3-yl)-5-(4-trifluoromethoxy-phenyl)-1,5-dihydro-pyrrol-2-one]: 269 °C, 600 nM and 500 nM.
As to `Cc1ccc(N2C(=O)C(O)=C(C(=O)c3ccc(OC(F)(F)F)cc3)C2c2ccc(C(C)C)cc2)nn1` (stereo not drawn) [Example 25, 3-hydroxy-5-(4-isopropyl-phenyl)-1-(6-methyl-pyridazin-3-yl)-4-(4-trifluoromethoxy-benzoyl)-1,5-dihydro-pyrrol-2-one], the melting point is 269 °C. On HCV NS5B genotype 1b (setting [1]), the EC50 came to 500 nM. Further, the EC50 in the series with HCV replicon Luc Neo ET (Hepatitis C virus, 72 h) is 200 nM.
As to `Cc1ccc(N2C(=O)C(O)=C(C(=O)c3ccc(C(C)C)cc3)C2c2ccc(C(C)C)cc2)cn1` (stereo not drawn) [Example 48, 3-hydroxy-4-(4-isopropyl-benzoyl)-5-(4-isopropyl-phenyl)-1-(6-methyl-pyridin-3-yl)-1,5-dihydro-pyrrol-2-one], the melting point fell in the range of 252 to 254 °C. In addition, the EC50 at HCV NS5B genotype 1b (setting [1]) turned out to be 700 nM. Besides, in the series with HCV replicon Luc Neo ET, the EC50 stood at 1000 nM.
`CC(=O)OC1=C(C(=O)c2ccc(C(C)C)cc2)C(c2ccc(C(C)C)cc2)N(c2ccc(C)nn2)C1=O` (stereo not drawn) [Example 56, Acetic acid 4-(4-isopropyl-benzoyl)-5-(4-isopropyl-phenyl)-1-(6-methyl-pyridazin-3-yl)-2-oxo-2,5-hydro-1H-pyrrol-3-yl ester] yielded a melting point of 215 °C. Besides, at HCV NS5B genotype 1b (setting [1]), the EC50 is 500 nM. Further, the EC50 with HCV replicon Luc Neo ET (Hepatitis C virus, 72 h) turned out to be 600 nM.
In the case of `Cc1ccc(N2C(=O)C(O)=C(C(=O)c3ccc(C(C)C)cc3)C2c2ccc(OC(F)(F)F)cc2)nn1` (stereo not drawn) [Example 61, 3-hydroxy-4-(4-isopropyl-benzoyl)-1-(6-methyl-pyridazin-3-yl)-5-(4-trifluoromethoxy-phenyl)-1,5-dihydro-pyrrol-2-one], the melting point was 258 to 260 °C and 262 to 265 °C. On HCV NS5B genotype 1b (setting [1]), the EC50 is 70 nM. Besides, in the series on HCV replicon Luc Neo ET (Hepatitis C virus, 72 h), the EC50 stood at 100 nM.
The molecule `COc1ccc(C2C(C(=O)c3ccc(C(C)C)cc3)=C(O)C(=O)N2c2ccc(C)nn2)cc1` (stereo not drawn) [Example 62, 3-hydroxy-4-(4-isopropyl-benzoyl)-5-(4-methoxy-phenyl)-1-(6-methyl-pyridazin-3-yl)-1,5-dihydro-pyrrol-2-one] showed a melting point of 263 to 267 °C. Besides, the EC50 on HCV NS5B genotype 1b (setting [1]) was 800 nM. In addition, the EC50 with HCV replicon Luc Neo ET (Hepatitis C virus, 72 h) came out at 900 nM.
`Cc1ccc(N2C(=O)C([O-])=C(C(=O)c3ccc(C(C)C)cc3)C2c2ccc(C(C)C)cc2)cn1.[Na+]` (stereo not drawn) [Example 67, Sodium; 4-(4-isopropyl-benzoyl)-5-(4-isopropyl-phenyl)-1-(6-methyl-pyridin-3-yl)-2-oxo-2,5-dihydro-1H-pyrrol-3-olate] registered a melting point of 215 °C. Further, the EC50 at HCV NS5B genotype 1b (setting [1]) stood at 3000 nM. Also, the EC50 in the series with HCV replicon Luc Neo ET is less than 10000 nM.
Regarding `Cc1ccc(N2C(=O)C(NS(C)(=O)=O)=C(C(=O)c3ccc(C(C)C)cc3)C2c2ccc(OC(F)(F)F)cc2)nn1` (stereo not drawn) [Example 149, N-[4-(4-isopropyl-benzoyl)-1-(6-methyl-pyridazin-3-yl)-2-oxo-5-(4-trifluoromethoxy-phenyl)-2,5-dihydro-1H-pyrrol-3-yl]-methanesulfonamide], the EC50 was less than 1000 nM at HCV NS5B genotype 1b (setting [2]) and less than 1000 nM in the series on HCV replicon Luc Neo ET (Hepatitis C virus, 72 h).
As for `CCOc1ccc(C2C(C(=O)c3ccc(C(C)C)cc3)=C(O)C(=O)N2c2ccc(C)nn2)cn1` (stereo not drawn) [Example 155, 2-ethoxy-5-[4-hydroxy-3-(4-isopropyl-benzoyl)-1-(6-methyl-pyridazin-3-yl)-5-oxo-2,5-dihydro-1H-pyrrol-2-yl]-pyridinium; chloride], the EC50 was less than 1000 nM at HCV NS5B genotype 1b (read-out: EC50_3DS_NS5B, Table 2, titled Replicon assay results) and less than 1000 nM in the series with HCV replicon Luc Neo ET.
Take `Cc1ccc(N2C(=O)C(O)=C(C(=O)c3ccc(C(C)C)cc3)C2c2ccc(C(C)(F)F)cc2)nn1` (stereo not drawn) [Example 158, 5-[4-(1,1-difluoro-ethyl)phenyl]-3-hydroxy-4-(4-isopropyl-benzoyl)-1-(6-methyl-pyridazin-3-yl)-1,5-dihydro-pyrrol-2-one]: the EC50 on HCV NS5B genotype 1b (setting [2]) was less than 100 nM; in the series on HCV replicon Luc Neo ET (Hepatitis C virus, 72 h) it was less than 1000 nM.
In the case of `Cc1ccc(N2C(=O)C(O)=C(C(=O)c3ccc(C(F)(F)F)cc3)C2c2ccc(OC(F)(F)F)cc2)nn1` (stereo not drawn) [Example 162, 3-hydroxy-1-(6-methyl-pyridazin-3-yl)-5-(4-trifluoromethoxy-phenyl)-4-(4-trifluoromethyl-benzoyl)-1,5-dihydro-pyrrol-2-one], the EC50 was less than 1000 nM at HCV NS5B genotype 1b (setting [2]) and less than 10000 nM in the series with HCV replicon Luc Neo ET (Hepatitis C virus, 72 h).
Take `Cc1ccc(N2C(=O)C(O)=C(C(=O)c3ccc(OC(F)(F)F)cc3)C2c2ccc(OC(C)C)nc2)nn1` (stereo not drawn) [Example 169, 3-hydroxy-5-(6-isopropoxy-pyridin-3-yl)-1-(6-methyl-pyridazin-3-yl)-4-(4-trifluoromethoxy-benzoyl)-1,5-dihydro-pyrrol-2-one]: the EC50 at HCV NS5B genotype 1b (setting [2]) was less than 1000 nM; in the series with HCV replicon Luc Neo ET (Hepatitis C virus, 72 h) it was less than 1000 nM.
`CCOc1ccc([C@@H]2C(C(=O)c3ccc(C(C)C)cc3)=C(O)C(=O)N2c2ccc(C)nn2)cn1` [Example 192, 5(R)-(6-ethoxy-pyridin-3-yl)-3-hydroxy-4-(4-isopropyl-benzoyl)-1-(6-methyl-pyridazin-3-yl)-1,5-dihydro-pyrrol-2-one]: the EC50 at HCV NS5B genotype 1b (setting [2]) was less than 1000 nM; in the series on HCV replicon Luc Neo ET (Hepatitis C virus, 72 h) it was less than 1000 nM.
In the case of `Cc1ccc(N2C(=O)C(O)=C(C(=O)c3ccc(C(C)C)cc3)[C@H]2c2ccc(C(F)(F)F)nc2)nn1` [Example 195, 3-hydroxy-4-(4-isopropyl-benzoyl)-1-(6-methyl-pyridazin-3-yl)-5(R)-(6-trifluoromethyl-pyridin-3-yl)-1,5-dihydro-pyrrol-2-one], the EC50 on HCV NS5B genotype 1b (setting [2]) was less than 1000 nM; with HCV replicon Luc Neo ET (Hepatitis C virus, 72 h) it was less than 1000 nM.
On to `Cc1ccc(N2C(=O)C(O)=C(C(=O)c3ccc(C(C)C)cc3)[C@H]2c2ccc(C(C)(F)F)cc2)nn1` [Example 196, 5(R)-[4-(1,1-difluoro-ethyl)-phenyl]-3-hydroxy-4-(4-isopropyl-benzoyl)-1-(6-methyl-pyridazin-3-yl)-1,5-dihydro-pyrrol-2-one], for which the EC50 is less than 1000 nM on HCV NS5B genotype 1b (setting [2]) and less than 1000 nM with HCV replicon Luc Neo ET (Hepatitis C virus, 72 h).
For `Cc1ccc(N2C(=O)C(NS(C)(=O)=O)=C(C(=O)c3ccc(C(C)C)cc3)[C@H]2c2ccc(OC(F)(F)F)cc2)nn1` [Example 198, N-[4-(4-isopropyl-benzoyl)-1-(6-methyl-pyridazin-3-yl)-2-oxo-5(R)-(4-trifluoromethoxy-phenyl)-2,5-dihydro-1H-pyrrol-3-yl]-methanesulfonamide], the EC50 at HCV NS5B genotype 1b (setting [2]) was less than 1000 nM; with HCV replicon Luc Neo ET (Hepatitis C virus, 72 h), less than 1000 nM.
